The results in this text go back to ChEMBL document CHEMBL2396598, “Anti-neuroinflammatory diarylheptanoids from the rhizomes of Dioscorea nipponica” (Bioorg Med Chem Lett, 2013).

Each structure is given as a SMILES string.

A word on the IC50: it is the point on the concentration scale where inhibition reaches its midpoint.

The nature of series [1]: Cytotoxicity against LPS-treated mouse BV2 cells assessed as cell viability at 20 uM relative to control. The format is cell-based, BV-2. The settings on record: read-out: Activity.
For a further series, the system named is BV-2. The series is described as follows: Antineuroinflammatory activity in mouse BV2 cells assessed as inhibition of LPS-induced nitric oxide production after 24 hrs by Griess assay. In kind it is functional, cell-based. Conditions: BV-2, 24 h.

As for `Oc1ccc(/C=C/[C@H]2C[C@H](O)C[C@@H](c3ccc(O)cc3)O2)cc1`, the viability at 20 µM in series [1] turned out to be 91.4%. In the series with BV-2, the IC50 was found to be 18.6 µM.

On to `COc1cc(CC[C@@H](O)C[C@H](O)CCc2ccc(O)c(O)c2)ccc1O`, for which the viability at 20 µM in series [1] came out at 99.2%. Further, the half-maximal inhibitory concentration (IC50) in the series with BV-2 was found to be 89.7 µM.

Turning to `Oc1ccc(CC[C@H]2C[C@H](O)C[C@@H](c3ccc(O)cc3)O2)cc1`, the viability at 20 µM in series [1] worked out at 95.6%. In addition, in the series with BV-2, the concentration for half-maximal inhibition (IC50) came to 38.1 µM.

Consider `COc1cc(CC[C@H]2C[C@H](O)C[C@@H](c3ccc(O)c(OC)c3)O2)ccc1O`, for which the viability at 20 µM in series [1] turned out to be 116%. Besides, the IC50 in the series on BV-2 turned out to be 45.9 µM.

For the compound `COc1cc(/C=C/C=C/C(=O)CCc2ccc(O)cc2)ccc1O`, the viability at 20 µM in series [1] was found to be 115%. In the series on BV-2, the IC50 was found to be 13.4 µM.

With `COc1cc(CC[C@H]2C[C@@H](O)C[C@@H](c3ccc(O)c(OC)c3)O2)ccc1O`, the viability at 20 µM in series [1] turned out to be 109%. Besides, the IC50 with BV-2 is 95.1 µM.

As to `COc1ccc(/C=C/C=C/C(=O)CCc2ccc(O)cc2)cc1`, in series [1], the viability at 20 µM was 18.5%. In addition, in the series on BV-2, the IC50 came to 8.44 µM.

`O=C(/C=C/C=C/c1ccc(O)c(O)c1)CCc1ccc(O)cc1`: in series [1], the viability at 20 µM worked out at 104%. Moreover, the IC50 in the series on BV-2 was 14.4 µM.

In the case of `COc1cc(/C=C/C(=O)/C=C/c2ccc(O)cc2)ccc1O`, in series [1], the viability at 20 µM was determined as 25.5%. Further, the IC50 in the series with BV-2 worked out at 5.99 µM.

As to `O=C(/C=C/c1ccc(O)cc1)C[C@H](O)CCc1ccc(O)cc1`, the viability at 20 µM in series [1] was determined as 99.4%. Also, the IC50 in the series with BV-2 was determined as 57.1 µM.

`O=C(/C=C/C=C/c1ccc(O)c(O)c1)CCc1ccc(O)c(O)c1`: the viability at 20 µM in series [1] was determined as 24.6%. For the same compound, in the series on BV-2, the IC50 is 7.84 µM.

With `Oc1ccc(CC[C@H]2C[C@@H](O)C[C@@H](c3ccc(O)cc3)O2)cc1`, the viability at 20 µM in series [1] amounted to 96.8%. Besides, the IC50 in the series on BV-2 turned out to be 39.7 µM.

With `CNC(=N)NCCC[C@H](N)C(=O)O` [TILARGININE], the viability at 20 µM in series [1] was 103%.
